The results in this text go back to patent publication US7981903B2, “2-[2-{phenylamino}-1H-pyrrolo[2,3-D]pyrimidin-4-yl)amino] benzamide derivatives as IGF-1R inhibitors for the treatment of cancer” (GlaxoSmithKline LLC, priority 2007, dated 2011).

A word on the pIC50: it is the IC50 on a negative log10 scale, so that one unit is a factor of ten. Low readings indicate a large IC50, high ones a small IC50.

Each structure is given as a SMILES string. pIC50: −log10 of the molar value.

For test [1], the target named is T1, human IR (hIR) (Homo sapiens, UniProt P06213).
T1 construct: containing amino acid residues 979-1382 of human IR; made in house; host or cells: Sf9 cells (baculovirus), same process as hIGF1R
T1 sequence (P06213 979-1382): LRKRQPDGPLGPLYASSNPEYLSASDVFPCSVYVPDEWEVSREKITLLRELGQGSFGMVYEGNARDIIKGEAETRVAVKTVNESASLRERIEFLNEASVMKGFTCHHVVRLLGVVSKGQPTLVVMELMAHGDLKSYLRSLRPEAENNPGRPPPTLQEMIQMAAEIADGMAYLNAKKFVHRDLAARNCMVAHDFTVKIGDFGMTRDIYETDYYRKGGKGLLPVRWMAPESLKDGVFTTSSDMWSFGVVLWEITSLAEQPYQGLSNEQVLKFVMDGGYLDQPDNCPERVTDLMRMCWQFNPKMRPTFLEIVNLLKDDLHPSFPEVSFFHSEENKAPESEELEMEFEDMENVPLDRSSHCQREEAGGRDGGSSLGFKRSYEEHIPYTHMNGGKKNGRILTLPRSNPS
Put plainly: TR-FRET kinase assay of purified hIR. In kind it is biochemical. The note with it: activated hIR 0.5 nM, 10 μM ATP, values given as pIC50 category.

The target in test [2] is T2, NIH-3T3 cells overexpressing human IR (Homo sapiens, UniProt P06213).
T2 construct: expressed in transfected cells; host or cells: NIH-3T3 (mouse fibroblasts)
T2 sequence (P06213 28-1382): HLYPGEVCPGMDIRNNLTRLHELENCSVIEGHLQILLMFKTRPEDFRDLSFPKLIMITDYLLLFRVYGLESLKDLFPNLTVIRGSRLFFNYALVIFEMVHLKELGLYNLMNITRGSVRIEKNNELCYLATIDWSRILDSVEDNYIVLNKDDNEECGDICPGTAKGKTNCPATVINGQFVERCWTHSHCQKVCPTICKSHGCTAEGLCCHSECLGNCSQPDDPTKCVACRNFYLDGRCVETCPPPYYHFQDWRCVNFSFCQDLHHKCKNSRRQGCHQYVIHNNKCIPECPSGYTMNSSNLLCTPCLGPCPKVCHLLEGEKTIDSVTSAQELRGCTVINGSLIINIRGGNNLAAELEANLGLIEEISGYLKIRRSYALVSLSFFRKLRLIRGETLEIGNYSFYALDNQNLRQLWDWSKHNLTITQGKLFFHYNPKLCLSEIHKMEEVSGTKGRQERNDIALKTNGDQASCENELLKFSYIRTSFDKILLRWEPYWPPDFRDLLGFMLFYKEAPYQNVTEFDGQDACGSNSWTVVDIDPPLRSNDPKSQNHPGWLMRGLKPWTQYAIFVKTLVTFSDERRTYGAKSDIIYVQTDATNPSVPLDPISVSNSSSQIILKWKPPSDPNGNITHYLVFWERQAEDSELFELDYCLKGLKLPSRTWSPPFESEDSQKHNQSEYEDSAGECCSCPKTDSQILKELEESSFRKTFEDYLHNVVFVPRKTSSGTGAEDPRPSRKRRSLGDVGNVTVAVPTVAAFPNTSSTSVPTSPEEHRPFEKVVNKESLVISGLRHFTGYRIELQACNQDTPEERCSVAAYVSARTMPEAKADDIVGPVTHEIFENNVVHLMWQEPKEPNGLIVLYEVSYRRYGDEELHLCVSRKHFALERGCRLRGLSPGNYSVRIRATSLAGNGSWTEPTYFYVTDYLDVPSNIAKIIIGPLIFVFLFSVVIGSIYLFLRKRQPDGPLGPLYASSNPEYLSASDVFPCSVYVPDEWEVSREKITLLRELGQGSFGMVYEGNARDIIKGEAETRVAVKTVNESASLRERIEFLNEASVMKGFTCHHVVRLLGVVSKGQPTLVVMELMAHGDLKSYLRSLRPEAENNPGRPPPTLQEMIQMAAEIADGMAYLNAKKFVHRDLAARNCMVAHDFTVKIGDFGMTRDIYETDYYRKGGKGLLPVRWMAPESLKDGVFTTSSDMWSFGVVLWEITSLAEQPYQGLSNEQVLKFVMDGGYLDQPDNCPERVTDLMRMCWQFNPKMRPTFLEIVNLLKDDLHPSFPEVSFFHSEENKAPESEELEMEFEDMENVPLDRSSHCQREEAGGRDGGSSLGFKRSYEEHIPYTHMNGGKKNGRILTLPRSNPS
In words: IR cellular autophosphorylation (DELFIA). The note with it: 2 h compound, insulin 3 ug/ml for 15 minutes, IC50 category. In kind it is cell-based. A digest of the protocol:
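Receptor autophosphorylation measured by DELFIA, capturing IGF-1R or IRβ and detecting with europium anti-pTyr, reported as percent of IGF-1- or insulin-stimulated signal. Compounds (30 uM to 1.5 nM) added 2 h before ligand, then 15 min stimulation (IGF-1 30 ng/ml or insulin 3 ug/ml).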

Test [3] concerns the target T3, human IGF1R (hIGF1R) (Homo sapiens, UniProt P08069).
T3 construct: containing amino acid residues 957-1367 of human IGF1R; made in house; host or cells: Sf9 cells (baculovirus)
In words: TR-FRET kinase assay of purified hIGF1R. It counts as biochemical. The note with it: activated hIGF1R 0.5 nM, 10 μM ATP, values given as pIC50 category, read-out: IGF-1R pIC50 (converted). For orientation: Time-resolved FRET reads energy transfer from a long-lived donor to a nearby acceptor.

T3 sequence (P08069 957-1367): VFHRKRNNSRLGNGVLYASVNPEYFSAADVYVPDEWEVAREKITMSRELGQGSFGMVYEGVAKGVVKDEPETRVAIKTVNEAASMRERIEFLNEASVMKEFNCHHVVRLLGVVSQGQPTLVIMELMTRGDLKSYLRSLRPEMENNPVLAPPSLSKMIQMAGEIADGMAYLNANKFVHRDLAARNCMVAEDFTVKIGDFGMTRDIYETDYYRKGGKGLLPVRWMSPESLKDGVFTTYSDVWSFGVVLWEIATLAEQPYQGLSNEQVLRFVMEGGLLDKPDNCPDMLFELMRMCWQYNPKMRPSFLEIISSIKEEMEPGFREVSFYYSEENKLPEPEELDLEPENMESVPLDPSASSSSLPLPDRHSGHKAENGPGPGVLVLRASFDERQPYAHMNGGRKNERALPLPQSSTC

For the compound `COc1cc2c(cc1Nc1nc(Nc3cccc(F)c3C(N)=O)c3cc[nH]c3n1)CN(C(=O)CCN(C)C)CC2` [Example 230, 2-[(2-{[2-(N,N-dimethyl-β-alanyl)-6-(methyloxy)-1,2,3,4-tetrahydro-7-isoquinolinyl]amino}-1H-pyrrolo[2,3-d]pyrimidin-4-yl)amino]-6-fluorobenzamide], the pIC50 in test [1] is 6.80 to 8.30; in test [2], 6.30 to 7.00. Further, the IC50 in test [3] is 5.01 to 200 nM.
On the same counts, the results for `COc1cc2c(cc1Nc1nc(Nc3cccc(F)c3C(N)=O)c3cc[nH]c3n1)CN(C(=O)CCN1CCOCC1)CC2` [Example 231, 2-fluoro-6-{[2-({6-(methyloxy)-2-[3-(4-morpholinyl)propanoyl]-1,2,3,4-tetrahydro-7-isoquinolinyl}amino)-1H-pyrrolo[2,3-d]pyrimidin-4-yl]amino}benzamide] are 6.80 to 8.30, below 6.30 and 5.01 to 200 nM.
Take `COc1cc2c(cc1Nc1nc(Nc3cccc(F)c3C(N)=O)c3cc[nH]c3n1)CN(CCCN(C)C)CC2` [Example 232, 2-[(2-{[2-[3-(dimethylamino)propyl]-6-(methyloxy)-1,2,3,4-tetrahydro-7-isoquinolinyl]amino}-1H-pyrrolo[2,3-d]pyrimidin-4-yl)amino]-6-fluorobenzamide]: the negative logarithm of the IC50 (pIC50) is 8.40 to 8.90 in test [1] and below 6.30 in test [2]. Besides, the IC50 in test [3] was 5.01 to 200 nM.
For `CNC(=O)c1c(F)cccc1Nc1nc(Nc2cc3c(cc2OC)CCN(C(C)C)C3)nc2[nH]ccc12` [Example 235, 2-fluoro-N-methyl-6-[(2-{[2-(1-methylethyl)-6-(methyloxy)-1,2,3,4-tetrahydro-7-isoquinolinyl]amino}-1H-pyrrolo[2,3-d]pyrimidin-4-yl)amino]benzamide], the pIC50 is 8.40 to 8.90 in test [1] and below 6.30 in test [2]. For the same compound, in test [3], the IC50 is 5.01 to 200 nM.
On the same counts, the results for `CCC(C)N1CCc2cc(OC)c(Nc3nc(Nc4cccc(F)c4C(=O)NC)c4cc[nH]c4n3)cc2C1` (stereo not drawn) [Example 238, 2-fluoro-N-methyl-6-[(2-{[6-(methyloxy)-2-(1-methylpropyl)-1,2,3,4-tetrahydro-7-isoquinolinyl]amino}-1H-pyrrolo[2,3-d]pyrimidin-4-yl)amino]benzamide] are 8.40 to 8.90, 6.30 to 7.00 and 5.01 to 200 nM.
In the case of `CNC(=O)c1c(F)cccc1Nc1nc(Nc2cc(N(C)C(=O)CN(C)C)ccc2OC)nc2[nH]ccc12` [Example 242, 2-[(2-{[5-[(N,N-dimethylglycyl)(methyl)amino]-2-(methyloxy)phenyl]amino}-1H-pyrrolo[2,3-d]pyrimidin-4-yl)amino]-6-fluoro-N-methylbenzamide], the pIC50 is 6.80 to 8.30 in test [1] and above 7.00 in test [2]. In test [3], the IC50 was 5.01 to 200 nM.
On the same counts, the results for `COc1ccc(NC(=O)CN(C)C)cc1Nc1nc(Nc2cccc(F)c2C(N)=O)c2cc[nH]c2n1` [Example 244, 2-[(2-{[5-[(N,N-dimethylglycyl)amino]-2-(methyloxy)phenyl]amino}-1H-pyrrolo[2,3-d]pyrimidin-4-yl)amino]-6-fluorobenzamide] are 9.00 to 9.60, above 7.00 and 0.251 to 1 nM.
On the same counts, the results for `CNC(=O)c1c(F)cccc1Nc1nc(Nc2cc3c(cc2OC)CCN3C(=O)CN(C)C)nc2[nH]cc(C)c12` [Example 258, 2-[(2-{[1-(N,N-dimethylglycyl)-5-(methyloxy)-2,3-dihydro-1H-indol-6-yl]amino}-5-methyl-1H-pyrrolo[2,3-d]pyrimidin-4-yl)amino]-6-fluoro-N-methylbenzamide] are 9.00 to 9.60, 6.30 to 7.00 and 0.251 to 1 nM.
On the same counts, the results for `COc1cc2c(cc1Nc1nc(Nc3cccc(F)c3C(N)=O)c3cc(C)[nH]c3n1)N(C(=O)CN(C)C)CC2` [Example 262, 2-[(2-{[1-(N,N-dimethylglycyl)-5-(methyloxy)-2,3-dihydro-1H-indol-6-yl]amino}-6-methyl-1H-pyrrolo[2,3-d]pyrimidin-4-yl)amino]-6-fluorobenzamide] are 6.80 to 8.30, 6.30 to 7.00 and 5.01 to 200 nM.
